We go through 8 molecules from PubChem BioAssay (NCI).

The structures appear in SMILES notation.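 Exposure lasted 48 hours, with cells grown in 96-well plates and compounds tested at five concentrations. Here, GI50 denotes the concentration required for 50% inhibition of growth. TGI denotes the concentration required for complete inhibition of growth.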

Test systems include A549 NSCLC; SN12C renal; RXF 393 renal; SNB-75 CNS; HCT-116 colon; COLO 205 colon; UO-31 renal; BT-549 breast; T-47D breast; MCF7 breast.
Holding throughout (assay): DTP human tumour cell line panel, 48 h

With `Cc1cccc2c3c(sc12)C(c1ccc(Cl)cc1)C(C#N)=C(N)O3` (centres undefined), the GI50 (usually the concentration at which growth is held to half of that of the control) is 0.486 µM in the test on A549 NSCLC; 0.544 µM in the test with SN12C renal; 0.215 µM in the test on RXF 393 renal; 0.214 µM in the test with SNB-75 CNS; 0.389 µM in the test on HCT-116 colon; 0.435 µM in the test on COLO 205 colon. Besides, the GI50 in the test on UO-31 renal was 0.664 µM; in the test with BT-549 breast it was 0.98 µM; in the test with T-47D breast, 0.411 µM; in the test on MCF7 breast, 0.257 µM. The TGI (as a rule, the concentration at which net growth stops) worked out at 9.66 µM in the test on A549 NSCLC; 11.2 µM with SN12C renal; 0.649 µM in the test on RXF 393 renal; 0.71 µM with SNB-75 CNS; 4.95 µM in the test on HCT-116 colon; 4.52 µM in the test on COLO 205 colon. For the same molecule, the TGI in the test on UO-31 renal was 16.2 µM; in the test on BT-549 breast, 6.9 µM; with T-47D breast it was 25.3 µM; with MCF7 breast, 4.64 µM.
On to `CCN(CC)CCCCCCNc1cc(OC)cc2cccnc12`, for which the GI50 with A549 NSCLC is 4.35 µM; in the test on SN12C renal, 2.29 µM; in the test with RXF 393 renal it was 4.26 µM; in the test on SNB-75 CNS, 13.8 µM; in the test with HCT-116 colon, 1.93 µM; with COLO 205 colon, 1.94 µM. The GI50 in the test with UO-31 renal is 11.5 µM; in the test on BT-549 breast it was 17.4 µM; with T-47D breast, 17.5 µM; with MCF7 breast, 1.74 µM. Moreover, the concentration for total growth inhibition (TGI) in the test with A549 NSCLC worked out at 15.4 µM; in the test with SN12C renal, 5 µM; in the test on RXF 393 renal it was 15.7 µM; with SNB-75 CNS, 30.6 µM; in the test on HCT-116 colon, 3.55 µM; in the test with COLO 205 colon, 3.85 µM. Also, the TGI in the test with UO-31 renal amounted to 29.5 µM; in the test with BT-549 breast, 33.6 µM; with T-47D breast, 38.6 µM; with MCF7 breast it was 3.56 µM.
For the molecule `COC1=C(OC)C(=O)C(SC/C=C(\C)CCCC(C)CCCC(C)CCCC(C)C)=CC1=O` (centres undefined), the GI50 with A549 NSCLC was 2.83 µM; in the test with SN12C renal it was 0.741 µM; with RXF 393 renal, 1.36 µM; in the test on SNB-75 CNS it was 0.972 µM; with HCT-116 colon it was 0.574 µM; in the test with COLO 205 colon, 8.49 µM. The GI50 was 1.24 µM in the test on UO-31 renal, 0.993 µM in the test on BT-549 breast, 0.478 µM in the test with T-47D breast and 0.455 µM in the test with MCF7 breast. Moreover, the TGI with A549 NSCLC is greater than 100 µM; with SN12C renal it was greater than 100 µM; in the test with RXF 393 renal, greater than 91.6 µM; with SNB-75 CNS, greater than 26.1 µM; with HCT-116 colon, greater than 39.7 µM; in the test on COLO 205 colon it was greater than 100 µM. For the same molecule, the TGI is greater than 27.2 µM with UO-31 renal, 10.2 µM with BT-549 breast, 12.1 µM in the test with T-47D breast and greater than 26.9 µM with MCF7 breast.
As to `COc1cc(/C=C/C(=O)c2cccc(-n3cc(-c4ccc(Cl)cc4)[nH]c3=O)c2)cc(OC)c1OC`, the GI50 in the test on A549 NSCLC is 85.2 µM; in the test on SN12C renal, 5.14 µM; in the test with RXF 393 renal it was 3.22 µM; in the test on SNB-75 CNS, 20.5 µM; in the test with HCT-116 colon it was 1.39 µM; in the test on COLO 205 colon it was 7.38 µM. Further, the GI50 in the test with UO-31 renal was 7.03 µM; with BT-549 breast, 12.3 µM; in the test with T-47D breast, 6.65 µM; in the test on MCF7 breast, 1.74 µM. In addition, the TGI with A549 NSCLC was greater than 100 µM; in the test with SN12C renal, 28.5 µM; with RXF 393 renal it was 7.7 µM; in the test with SNB-75 CNS, greater than 100 µM; with HCT-116 colon, 2.68 µM; in the test on COLO 205 colon, 20.2 µM. In addition, the total growth inhibition concentration (TGI) with UO-31 renal was 21.3 µM; in the test on BT-549 breast it was 79.9 µM; with T-47D breast, 51.5 µM; in the test on MCF7 breast it was 5.75 µM.
In the case of `c1ccc2c(c1)Nc1ccncc1S2`, the GI50 was 26.3 µM in the test on A549 NSCLC; 27.8 µM in the test on SN12C renal; 11.9 µM in the test with RXF 393 renal; 18.1 µM with SNB-75 CNS; 20.5 µM in the test on HCT-116 colon; 11.5 µM with COLO 205 colon. Further, the GI50 was 12.7 µM in the test with UO-31 renal, 29.6 µM in the test on BT-549 breast, 22.4 µM with T-47D breast and 28.7 µM in the test on MCF7 breast. Moreover, the TGI was greater than 100 µM with A549 NSCLC; greater than 100 µM with SN12C renal; 32 µM in the test with RXF 393 renal; 56.6 µM in the test with SNB-75 CNS; greater than 100 µM in the test on HCT-116 colon; 37.1 µM with COLO 205 colon. Moreover, the TGI in the test with UO-31 renal was 74 µM; in the test on BT-549 breast, greater than 100 µM; in the test on T-47D breast it was 96.3 µM; with MCF7 breast, greater than 100 µM.
For the molecule `COC1C(N)C(OC2C(Oc3cccc4c(O)c5c(=O)oc6ccc(C)c7c(=O)oc(c34)c5c67)OC(C)C(O)C2(C)O)OC(C)C1O` (centres undefined), the TGI in the test with A549 NSCLC was determined as 1.49 µM; in the test with SN12C renal it was 0.547 µM; in the test on RXF 393 renal, 0.138 µM; in the test with SNB-75 CNS it was 0.356 µM; in the test on HCT-116 colon, 0.118 µM; in the test with COLO 205 colon, 0.383 µM. Besides, the total growth inhibition concentration (TGI) with UO-31 renal stood at 0.82 µM; in the test with BT-549 breast, 0.214 µM; in the test on T-47D breast it was 1.43 µM; with MCF7 breast it was 1.31 µM.
As to `Cc1ccc(/C(C#N)=C/c2cccc([N+](=O)[O-])c2)cc1`, the TGI in the test with A549 NSCLC is greater than 100 µM; in the test on SN12C renal, greater than 100 µM; in the test on RXF 393 renal it was 41 µM; in the test with SNB-75 CNS, 39.6 µM; in the test on HCT-116 colon, greater than 100 µM; in the test with COLO 205 colon, greater than 100 µM. Further, the total growth inhibition concentration (TGI) with UO-31 renal, in the test on BT-549 breast, in the test with T-47D breast and in the test with MCF7 breast was greater than 100 µM each time.
On to `CCC1(O)C(=O)OCc2c1cc1n(c2=O)Cc2cc3c(NC(=O)CN)cccc3nc2-1` (centres undefined), for which the GI50 with A549 NSCLC was 1.2 µM; in the test with SN12C renal, 0.102 µM; in the test with RXF 393 renal, 0.515 µM; in the test on SNB-75 CNS it was 0.346 µM; in the test on HCT-116 colon, 1.01 µM; in the test on COLO 205 colon, 5 µM. The GI50 is 0.595 µM in the test with UO-31 renal, 0.477 µM in the test with BT-549 breast, 0.329 µM in the test with T-47D breast and 0.181 µM with MCF7 breast. The concentration for total growth inhibition (TGI) in the test on A549 NSCLC was greater than 67.7 µM; with SN12C renal it was 10.1 µM; in the test with RXF 393 renal, 3.91 µM; in the test on SNB-75 CNS, 5.14 µM; in the test with HCT-116 colon, greater than 62.5 µM; in the test with COLO 205 colon, 46.6 µM. For the same molecule, the total growth inhibition concentration (TGI) was 4.82 µM in the test with UO-31 renal, greater than 26.2 µM in the test with BT-549 breast and greater than 43.2 µM in the test with MCF7 breast.
